These results are taken from ChEMBL document CHEMBL5537111, “Structure and function of SARS-CoV and SARS-CoV-2 main proteases and their inhibition: A comprehensive review” (Eur J Med Chem, 2023).

The target of assay [1] is T1, Replicase polyprotein 1ab (Severe acute respiratory syndrome coronavirus 2, UniProt P0DTD1).
The test system of assay [2] is SARS-CoV-2. The experiment in a line: Antiviral activity against SARS-CoV-2 Omicron BA.1 infected in human A549-hACE2-TMPRSS2 cells assessed as reduction in viral replication pre-incubated with compound followed by viral infection measured after 72 hrs by ELISA assay. Conditions: Severe acute respiratory syndrome coronavirus 2, Omicron BA.1, A549-hACE2-TMPRSS2. It counts as functional, organism-based. (In general: ELISA stands for enzyme-linked immunosorbent assay.)

The target in assay [3] is T1, Replicase polyprotein 1ab. This is another data set of the same source.
Assay [4] has as its system SARS-CoV-2. The assay is described as follows: microbe, parasite or virus in culture. Conditions: Severe acute respiratory syndrome coronavirus 2, Vero C1008.
The test system of assay [5] is SARS-CoV-2. The class given is functional, organism-based. As to conditions: Severe acute respiratory syndrome coronavirus 2, Huh-7.
Assay [6] concerns SARS-CoV-2. It counts as functional, organism-based. Conditions: Severe acute respiratory syndrome coronavirus 2, Huh-7, 72 h.
For assay [7], the target named is T1, Replicase polyprotein 1ab. The source holds these as a separate data set.
In assay [8] the test system is SARS-CoV-2. It counts as functional, organism-based. Conditions: Severe acute respiratory syndrome coronavirus 2, A549-ACE2.
The test system of assay [9] is SARS-CoV-2. The experiment in a line: microbe, parasite or virus in culture. As to conditions: Severe acute respiratory syndrome coronavirus 2, Vero C1008. This is another data set of the same source.
The subject of assay [10] is SARS-CoV-2. The experiment in a line: microbe, parasite or virus in culture. As to conditions: Severe acute respiratory syndrome coronavirus 2, Vero C1008, 72 h.
For assay [11], the target named is Replicase polyprotein 1a (Severe acute respiratory syndrome-related coronavirus, UniProt P0C6U8).
Assay [12] relates to SARS-CoV. The experiment in a line: microbe, parasite or virus in culture. As to conditions: Severe acute respiratory syndrome-related coronavirus, Vero C1008, 72 h.
Assay [13] concerns SARS-CoV-2. It counts as functional, organism-based. As to conditions: Severe acute respiratory syndrome coronavirus 2, Vero C1008, 120 h.
Assay [14] addresses T1, Replicase polyprotein 1ab. The assay is described as follows: Binding affinity to His-tagged SARS-CoV-2 Main protease BetaCoV/Wuhan/WIV04/2019 expressed in Escherichia coli BL21 (DE3) assessed as inhibition constant by FRET assay.
Assay [15] has as its system SARS-CoV-2. The class given is functional, organism-based. As to conditions: Severe acute respiratory syndrome coronavirus 2, Calu-3.
In assay [16] the test system is SARS-CoV-2. The class given is functional, organism-based. Conditions: Severe acute respiratory syndrome coronavirus 2, Calu-3, 48 h.
Assay [17] deals with SARS-CoV-2. It counts as functional, organism-based. Conditions: Severe acute respiratory syndrome coronavirus 2, Vero.
Assay [18] has as its system SARS-CoV-2. The experiment in a line: microbe, parasite or virus in culture. As to conditions: Severe acute respiratory syndrome coronavirus 2, B.1.1.7, Caco-2.
The target of assay [19] is T1, Replicase polyprotein 1ab. The experiment in a line: Binding affinity to SARS-CoV-2 MPro assessed as dissociation constant by FRET analysis.
In assay [20] the test system is A549. The experiment in a line: cells. Conditions: Homo sapiens, A549, 72 h.
For assay [21], the system named is SARS-CoV-2. The assay is described as follows: microbe, parasite or virus in culture. As to conditions: Severe acute respiratory syndrome coronavirus 2, Vero C1008, 72 h. This is another data set of the same source.

As usually defined, the IC50 is the midpoint of a concentration-inhibition curve. Higher therefore signals a need for much substance. By EC50 is commonly meant the concentration giving half of the maximal effect. What is called Ki is the dissociation constant of the complex between target and ligand, obtained from inhibition or displacement. As a reminder, the Kd is the constant that tells how readily two partners part at equilibrium.

Where a SMILES comes first, the peptide text is derived from it. The star is where a group is joined. Boc = CC(C)(C)OC(=O)*; OtBu = CC(C)(C)O*; CH2Cl = ClC*

Regarding `C=CC(=O)N(CCC(N)=O)NC(=O)[C@H](CC(C)C)NC(=O)[C@@H](NC(=O)OCc1ccccc1)[C@@H](C)OC(C)(C)C`, the concentration for half-maximal inhibition (IC50) in [1] is 34 nM. For the same compound, the concentration giving a half-maximal response (EC50) in assay [2] turned out to be 700 nM.

`O=C(NCc1ccc(O)c(F)c1)N1CCC(CN2CCc3ccccc32)CC1` returned a half-maximal inhibitory concentration (IC50) in [3] of 730 nM. This compound returned an EC50 in [4] of 4980 nM.

Compound `CN(C)C(=O)COc1ccc(-c2cccc3[nH]ncc23)cc1C=O` returned an EC50 in assay [4] of 2500 nM.

On to `CC(C)(C)NC(=O)N[C@H](C(=O)N1C[C@H]2[C@@H]([C@H]1C(=O)N[C@@H](C[C@@H]1CCNC1=O)C(=O)C(N)=O)C2(C)C)C(C)(C)C`, for which the concentration for a half-maximal effect (EC50) in [5] and in [6] was 100 nM in each case.

Compound `C[C@@H](OC(C)(C)C)[C@H](NC(=O)OCc1ccccc1)C(=O)N[C@@H](CC1CCCCC1)C(=O)NN(CCC(N)=O)C(=O)C(Cl)Cl` gave an IC50 in assay [7] of 68000 nM. In assay [8], the 50% effective concentration (EC50) turned out to be 10 nM.

Take `CCOC(=O)c1cc(=O)oc2cc(O)c(O)cc12`: the half-maximal effective concentration (EC50) in assay [9] was 112000 nM. This compound registered an IC50 in assay [1] of 46000 nM.

On to `CCCCC1CCC(COC(=O)N[C@@H](CC(C)C)C(=O)N[C@H](C=O)C[C@@H]2CCNC2=O)CC1` (stereo partly specified), for which, in [10], the EC50 was 150 nM. In addition, the half-inhibitory concentration (IC50) in assay [1] stood at 170 nM; in [11] it was 900 nM.

With `CNC(=O)c1ccc([C@H]2CCCCN2Cc2cccc(C(=O)N(C)C)c2)n1C`, the half-inhibitory concentration (IC50) in [3] was found to be 690 nM. This compound also showed an EC50 in assay [4] of 8520 nM.

Consider `Cc1c(O)cccc1C(=O)N[C@@H](CSc1ccccc1)[C@H](O)CN1C[C@H]2CCCC[C@H]2C[C@H]1C(=O)NC(C)(C)C`, for which a half-maximal effect in assay [12] (EC50) was put at 770 nM.

Consider `C[C@H](NC(=O)[C@H](Cc1ccccc1)NC(=O)OCc1ccccc1)C(=O)[C@H]1CO1`, for which, in assay [13], the EC50 stood at 12000 nM. Also, in assay [14], the Ki was 2200 nM.

Regarding `CC(C)(C)OC(=O)CC[C@H](NC(=O)CNC(=O)OC(C)(C)C)C(=O)CCl` (Boc-Gly-Glu(OtBu)-CH2Cl), the EC50 in assay [8] is 26000 nM; in assay [2], 50300 nM.

Consider `COC(=O)N[C@H](C(=O)N[C@@H](Cc1ccccc1)[C@@H](O)CN(Cc1ccc(-c2ccccn2)cc1)NC(=O)[C@@H](NC(=O)OC)C(C)(C)C)C(C)(C)C` [ATAZANAVIR], for which the concentration giving a half-maximal response (EC50) in assay [15] turned out to be 320 nM; in [13], 2000 nM.

In the case of `COC(=O)[C@]12CCC(C)(C)C[C@H]1[C@H]1C(=O)C=C3[C@@]4(C)C=C(C#N)C(=O)C(C)(C)[C@@H]4CC[C@@]3(C)[C@]1(C)CC2` [BARDOXOLONE METHYL], it took 5810 nM to reach half-maximal inhibition in [1] (IC50). Moreover, the 50% effective concentration (EC50) in assay [16] was determined as 200 nM; in assay [17], 290 nM.

As for `C=C(C)[C@@H]1CC[C@]2(C(=O)O)CC[C@]3(C)[C@H](CC[C@@H]4[C@@]5(C)CC[C@H](O)C(C)(C)[C@@H]5CC[C@]43C)[C@@H]12` [BETULINIC ACID], in [9], the EC50 was above 10000 nM. In addition, in assay [1], the IC50 was 10000 nM.

In the case of `CC(C)(C)NC(=O)N[C@H](C(=O)N1C[C@H]2[C@@H]([C@H]1C(=O)NC(CC1CCC1)C(=O)C(N)=O)C2(C)C)C(C)(C)C` (stereo partly specified) [BOCEPREVIR], the EC50 in assay [10] was 15600 nM; in assay [18], 2970 nM; in assay [4], 15600 nM. In assay [11], half-maximal inhibition (IC50) was put at 6630 nM.

With `CC(C)c1nc(CN(C)C(=O)N[C@@H](CCN2CCOCC2)C(=O)N[C@H](CC[C@H](Cc2ccccc2)NC(=O)OCc2cncs2)Cc2ccccc2)cs1` [COBICISTAT], the response in [13] was half-maximal at 2740 nM (EC50). For the same compound, the half-inhibitory concentration (IC50) in assay [1] turned out to be 6700 nM. In addition, in assay [19], the dissociation constant (Kd) was 2200 nM.

`CC(=O)[C@@]1(O)CC[C@H]2[C@@H]3CCC4=CC(=O)CC[C@]4(C)[C@H]3CC[C@@]21C` [HYDROXYPROGESTERONE] gave an EC50 in [9] of 2770 nM. Further, the midpoint of inhibition in assay [1], the IC50, lay at 2470 nM.

`Cc1ccc(NC(=O)c2ccc(CN3CCN(C)CC3)cc2)cc1Nc1nc(-c2cccnc2)cs1` [MASITINIB] had an EC50 in assay [20] of 3200 nM.

Take `O=c1c(O)c(-c2cc(O)c(O)c(O)c2)oc2cc(O)cc(O)c12` [MYRICETIN]: the half-maximal effective concentration (EC50) in assay [9] was found to be 8000 nM.

As to `CCOc1cc2ncc(C#N)c(Nc3ccc(F)c(Cl)c3)c2cc1NC(=O)/C=C/CN(C)C` [PELITINIB], the midpoint of the response in [12], the EC50, lay at 1250 nM.

`CC1(C)CCC(CN2CCN(c3ccc(C(=O)NS(=O)(=O)c4ccc(NCC5CCOCC5)c([N+](=O)[O-])c4)c(Oc4cnc5[nH]ccc5c4)c3)CC2)=C(c2ccc(Cl)cc2)C1` [VENETOCLAX] had an EC50 in assay [21] of 1180 nM.
